Molecular target: T1, BRAF V599E (Homo sapiens, UniProt P15056, V600E)
T1 construct: purchased Thermo Fisher Scientific (Life Technologies) SelectScreen
Experiment: SelectScreen Z'LYTE
Type: biochemical
Details: ATP 100 µM
Method in brief: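 NU5455 was profiled across the SelectScreen Broad panel of kinase activity and binding assays. Z'LYTE reactions such as CSF1R ran at apparent Km ATP, while the Adapta CAMK1 assay used ATP listed as 10. Values are given as percent.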

T1 sequence (P15056 417-766 V600E limits assumed): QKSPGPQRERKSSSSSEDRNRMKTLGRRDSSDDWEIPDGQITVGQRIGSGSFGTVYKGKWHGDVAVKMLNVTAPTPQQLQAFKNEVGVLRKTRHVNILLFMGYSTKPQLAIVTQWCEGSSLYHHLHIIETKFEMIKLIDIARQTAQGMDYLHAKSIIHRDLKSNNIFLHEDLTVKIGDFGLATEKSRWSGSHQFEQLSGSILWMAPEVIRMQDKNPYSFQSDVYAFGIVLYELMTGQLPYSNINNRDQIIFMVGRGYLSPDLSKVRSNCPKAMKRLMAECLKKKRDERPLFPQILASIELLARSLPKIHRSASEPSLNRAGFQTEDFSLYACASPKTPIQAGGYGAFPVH

CN(C(=O)CN1CCOCC1)c1ccc2sc3c(-c4cccc5c(=O)cc(N6CC7CCC(C6)O7)oc45)cccc3c2c1 [NU5455]
inhibition at 1 µM: 18.3%
